This is an account of results in patent publication US6165998A, “Antifungal agents” (Scriptgen Pharmaceuticals, Inc., priority 1998, dated 2000).

Where two headings read alike, the source gives them in different places.

The target in one assay is T1, human Pol II (Homo sapiens, UniProt P24928+P30876).
T1 construct: Pol II was isolated from Aspergillus nidulans, Saccharomyces cerevisiae, and human cells; endogenous in cells; enzyme isolated from them
Put plainly: RNA polymerase II counterscreen, human pol II. The note with it: read-out: IC50 Human pol II. It is filed as biochemical. As to the method:
Pol II was isolated from Aspergillus nidulans, Saccharomyces cerevisiae, and human cells (FIG. 5) and used in secondary screens for fungal spectrum and specificity. Pol I and Pol III were isolated from Candida albicans and used as an additional mechanism to study specificity. Confirmed hits form the primary assay and were evaluated against this panel of polymerases. Agents with activity against Pol II from multiple fungal enzymes but not against the human counterpart were evaluated in vitro against fungal pathogens.

Assay [1] deals with T2, C. albicans RNA polymerase II (Candida albicans, UniProt A0A1D8PUA6+Q5A8Y5).
T2 construct: RNA elongation assay on calf thymus DNA
The assay can be described thus: biochemical. The note with it: for IC50: read-out: IC50 Candida pol II; for inhibition at 20 µM: screening of azo library. As to the method:
The following procedure is used for cell-free high-throughput screening. A Tomtec Quadra 96-well pipetting station is used to add the reaction components to polypropylene 96-well dishes. 5 μl aliquots of test compounds dissolved in DMSO (or DMSO alone as a control) are added to wells. This is followed by 20 μl of the RNA polymerase II mixture, which consists of: 10 mM DTT, 200 mM KCl, 10 mM Mn^+2, 1.5 μM bovine serum albumin, and 0.25 μg reconstituted RNA polymerase. After allowing the test compound to interact with the RNA polymerase, 25 μl of the DNA/NTP mixture is added, containing: 1 μg calf thymus DNA, 4 μM [α-^32 P]-UTP, and 400 μM each CTP, ATP, and GTP.
After incubation for 60 min at 30 C, the reaction is stopped by addition of 50 μl 15% trichloroacetic acid (TCA). The TCA-precipitated RNA is adsorbed onto double-thick glass fiber filtermats using a Tomtec cell harvester. The wells of the microtiter plate and the filter are washed twice with 5% TCA and bound radioactivity is determined using a Wallac microbeta 1450 scintillation counter.
Inhibitory activity due to the test compound is calculated according to the formula: [formula] where cpmpositive control represents the average of the cpm in wells that received DMSO alone, and cpmsample represents the cpm in the well that received test compound. Compounds that cause at least 50% inhibition are scored as positive "hits" in this assay.
DNA-directed RNA polymerase II from Candida albicans was purified in sufficient quantity to support high throughput screening of large synthetic chemical and natural product libraries. A biochemical mechanism-based screen for detecting inhibitors of Pol II was developed and implemented. The screen is outlined in FIGS. 4A and 4B.

Assay [2] relates to systemic Candida infection. Put plainly: Murine model for systemic candidiasis. It is filed as in vivo, mouse. To be noted: systemic candidiasis, mice. As to the method:
In addition, Compound 1 was efficacious in a murine model for systemic candidiasis (FIG. 10). It prolonged mean and median survival times of treated mice in the dosage range of 5 mg/kg/d to 100 mg/kg/d on aq.d., d2-11 schedule. […] The efficacy of Compound 1 was confirmed in a separate experiment using amphotericin as a control (FIG. 11). Compound 1 was also efficacious when administered orally to mice with an established systemic Candida infection (FIG. 12). […] Compound 1 is also effective against systemic candidiasis caused by a strain of C. albicans resistant to fluconazole (FIG. 13). Additional animal testing will include acute toxicity determination, route and schedule dependency in standard efficacy models, efficacy testing in immunosuppressed Candida infected mice, efficacy in an Aspergillus infection model, and pharmacokinetics following IV and oral dosing.
Compound 6 was evaluated for antifungal efficacy in a systemic candidiasis model in immunocompetent mice (FIG. 18). The compound was administered IP on a q.d., d2-11 schedule. […] 90% long term survival was seen formice treated with Compound 6 at 200/mg/kg. 30% of mice survived when treated with Compound 6 at 100 mg/kg/d. Compound 6 was also effective against systemic candidiasis when administered orally (FIG. 19) and it was effective in treating infections caused by fluconazole-resistant C. albicans.

In the next assay the test system is S. cerevisiae. The assay can be described thus: Time course of fungicidal activity, S. cerevisiae. It counts as cell-based, Saccharomyces cerevisiae. The note with it: S. cerevisiae cells. The source says:
(§1) Compound 1 is rapidly fungicidal.

The next assay relates to C. albicans. The assay can be described thus: Time course of fungicidal activity, C. albicans. It counts as cell-based, Candida albicans. To be noted: C. albicans cells.
Excerpt: as §1

Where [3] appears, read: 1.5 μg/ml, similar time (45 minutes).

T2 sequence (A0A1D8PUA6 1-1728): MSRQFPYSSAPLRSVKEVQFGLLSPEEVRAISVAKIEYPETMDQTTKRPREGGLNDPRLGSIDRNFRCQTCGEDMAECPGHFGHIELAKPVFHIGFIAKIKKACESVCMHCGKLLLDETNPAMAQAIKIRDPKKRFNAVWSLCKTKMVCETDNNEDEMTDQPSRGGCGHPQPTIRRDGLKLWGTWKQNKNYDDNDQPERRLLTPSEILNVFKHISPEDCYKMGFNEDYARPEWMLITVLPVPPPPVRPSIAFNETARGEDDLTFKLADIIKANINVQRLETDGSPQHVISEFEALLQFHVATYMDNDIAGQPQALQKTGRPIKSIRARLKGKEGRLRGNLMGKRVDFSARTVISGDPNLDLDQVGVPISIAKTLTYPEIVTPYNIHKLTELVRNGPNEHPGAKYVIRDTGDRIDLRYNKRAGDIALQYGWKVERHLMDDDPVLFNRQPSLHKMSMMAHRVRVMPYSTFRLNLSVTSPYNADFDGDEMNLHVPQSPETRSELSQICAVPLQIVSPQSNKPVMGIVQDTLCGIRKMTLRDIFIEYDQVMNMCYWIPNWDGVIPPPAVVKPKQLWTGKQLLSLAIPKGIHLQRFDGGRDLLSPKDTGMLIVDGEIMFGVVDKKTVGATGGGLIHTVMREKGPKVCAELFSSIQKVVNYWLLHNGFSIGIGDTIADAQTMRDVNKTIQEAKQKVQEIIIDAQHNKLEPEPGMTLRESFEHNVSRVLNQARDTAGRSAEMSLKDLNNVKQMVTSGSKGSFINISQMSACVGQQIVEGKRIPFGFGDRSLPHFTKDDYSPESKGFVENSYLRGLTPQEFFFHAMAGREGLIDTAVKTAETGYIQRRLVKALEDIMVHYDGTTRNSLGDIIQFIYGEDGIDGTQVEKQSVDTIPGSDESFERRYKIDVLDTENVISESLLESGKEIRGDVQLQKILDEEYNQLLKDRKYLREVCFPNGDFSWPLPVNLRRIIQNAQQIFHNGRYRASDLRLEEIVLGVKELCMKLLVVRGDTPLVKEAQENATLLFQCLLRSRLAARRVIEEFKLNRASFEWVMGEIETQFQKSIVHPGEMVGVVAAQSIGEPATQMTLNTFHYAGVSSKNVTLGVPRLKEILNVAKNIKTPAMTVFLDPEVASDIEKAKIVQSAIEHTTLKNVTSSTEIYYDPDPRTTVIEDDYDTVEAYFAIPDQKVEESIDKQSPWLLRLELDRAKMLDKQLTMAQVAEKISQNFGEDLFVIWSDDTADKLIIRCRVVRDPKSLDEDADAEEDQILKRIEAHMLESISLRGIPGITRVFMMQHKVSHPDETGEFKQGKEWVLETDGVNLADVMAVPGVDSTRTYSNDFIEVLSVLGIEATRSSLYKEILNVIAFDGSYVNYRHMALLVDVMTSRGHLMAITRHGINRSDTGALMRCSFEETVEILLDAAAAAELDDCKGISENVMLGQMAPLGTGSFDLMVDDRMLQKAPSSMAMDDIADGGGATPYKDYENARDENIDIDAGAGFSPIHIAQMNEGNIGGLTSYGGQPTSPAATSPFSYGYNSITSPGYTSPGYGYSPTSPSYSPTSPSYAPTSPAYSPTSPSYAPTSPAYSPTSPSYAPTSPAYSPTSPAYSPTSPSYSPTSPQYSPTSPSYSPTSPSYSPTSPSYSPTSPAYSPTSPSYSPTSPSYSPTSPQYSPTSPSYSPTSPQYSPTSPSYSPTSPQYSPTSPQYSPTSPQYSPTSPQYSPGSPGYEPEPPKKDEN
T2 sequence (Q5A8Y5 1-1234): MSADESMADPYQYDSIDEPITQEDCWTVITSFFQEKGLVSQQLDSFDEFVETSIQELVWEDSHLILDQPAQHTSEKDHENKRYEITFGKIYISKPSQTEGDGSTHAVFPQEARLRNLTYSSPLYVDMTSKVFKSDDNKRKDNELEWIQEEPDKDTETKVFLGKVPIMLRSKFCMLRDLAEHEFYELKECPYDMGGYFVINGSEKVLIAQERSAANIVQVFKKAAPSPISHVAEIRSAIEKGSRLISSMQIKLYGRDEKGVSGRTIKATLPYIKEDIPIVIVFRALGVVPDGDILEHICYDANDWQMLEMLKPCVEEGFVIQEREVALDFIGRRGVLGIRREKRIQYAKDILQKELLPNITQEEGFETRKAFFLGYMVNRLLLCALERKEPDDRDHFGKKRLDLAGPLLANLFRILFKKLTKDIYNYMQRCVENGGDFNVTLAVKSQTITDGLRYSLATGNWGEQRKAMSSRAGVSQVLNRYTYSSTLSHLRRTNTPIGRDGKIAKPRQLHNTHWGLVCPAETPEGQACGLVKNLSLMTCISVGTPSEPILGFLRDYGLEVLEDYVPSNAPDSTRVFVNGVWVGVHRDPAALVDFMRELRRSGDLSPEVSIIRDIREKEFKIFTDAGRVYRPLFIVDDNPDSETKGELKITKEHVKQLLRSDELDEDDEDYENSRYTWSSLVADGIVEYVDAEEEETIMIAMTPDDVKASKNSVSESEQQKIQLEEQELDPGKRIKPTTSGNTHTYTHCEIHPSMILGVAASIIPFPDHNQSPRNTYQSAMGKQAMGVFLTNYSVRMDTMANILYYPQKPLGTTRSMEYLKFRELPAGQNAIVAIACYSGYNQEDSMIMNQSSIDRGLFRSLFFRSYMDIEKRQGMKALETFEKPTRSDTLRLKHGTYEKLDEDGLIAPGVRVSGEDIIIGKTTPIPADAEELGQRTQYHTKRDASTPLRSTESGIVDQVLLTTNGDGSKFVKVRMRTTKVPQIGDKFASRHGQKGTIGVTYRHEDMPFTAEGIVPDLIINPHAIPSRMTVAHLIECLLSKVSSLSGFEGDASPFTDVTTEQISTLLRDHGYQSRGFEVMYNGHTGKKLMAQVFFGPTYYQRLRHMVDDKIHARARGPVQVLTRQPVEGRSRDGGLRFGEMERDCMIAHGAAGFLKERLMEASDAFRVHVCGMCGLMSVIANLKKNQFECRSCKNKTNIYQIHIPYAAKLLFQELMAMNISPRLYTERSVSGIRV

In general, IC50 refers to the point on the concentration scale where inhibition reaches its midpoint. Turning to `O=[N+]([O-])c1cc(C(F)(F)F)ccc1N=Nc1ccc(O)cc1` [Compound 7], the concentration for half-maximal inhibition (IC50) at human Pol II (Table 2) was 300 µM; in assay [1] (Table 2) it was 190 µM.

Usually inhibition stands for the relative decrease from the control value, in per cent. Take `Oc1ccc(N=Nc2cccc(Cl)c2)cc1` [Compound 11, 4-[-2-[3-(chloro)phenyl]diazenyl]phenol]: in assay [1], at 20 µM the inhibition was 50%. Turning to `O=C(Nc1cccc(C(F)(F)F)c1)c1ccc(OCc2ccccc2)cc1` [Compound 29, 4-benzoxy-N-[3-(trifluoromethyl)phenyl]benzamide], the IC50 (on human Pol II (Table 2); in assay [1] (Table 2)) was more than 2000 µM each time. On to `OCc1cc(N=Nc2cccc(C(F)(F)F)c2)ccc1O` [Compound 19, 4-[-2-[3-(tnfluoromethyl)phenyl]diazenyl]-2-(hydroxymethyl)-phenol], for which the inhibition at 20 µM in assay [1] amounted to 33%. For the compound `O=C(Nc1cccc(C(F)(F)F)c1)c1ccc(O)cc1` [Compound 30, 4-hydroxy-N-[3-(trifnuoromethyl)phenyl]benzamide], the IC50 at human Pol II (Table 1) amounted to 82 µM; in assay [1] (Table 1) it was 27 µM. `O=[N+]([O-])c1cc(N=Nc2cccc(C(F)(F)F)c2)ccc1O` [Compound 8, 4-[-2-[3-(trifluoromethyl)phenyl]diazenyl]-2-nitrophenol]: the half-maximal inhibitory concentration (IC50) at human Pol II (Table 2) is more than 2000 µM; in assay [1] (Table 2), 103 µM. In the case of “4-[-2-[3-(trifluoromethyl)phenyl]diazenyl]-2-hydroxy-phenol [Compound 4]”, the half-maximal inhibitory concentration (IC50) on human Pol II (Table 2) was 230 µM; in assay [1] (Table 2) it was 70 µM. As to `Cc1cc(O)ccc1N=Nc1cccc(C(F)(F)F)c1` [Compound 22, 4[-2-[3-(trifluoromethyl)phenyl]diazenyl]-3-methyl-phenol], the inhibition at 20 µM in assay [1] came out at 42%.

Turning to `COCOc1ccc(C=Cc2cccc(C(F)(F)F)c2)cc1` [Compound 25, 4-[-2-[3-(trifluorometbyl)phenyl]ethenyl]-methoxymethoxyl phenyl], the IC50 (on human Pol II (Table 2); in assay [1] (Table 2)) was more than 2000 µM in each case. As for `O=C(O)CN(CCN(CC(=O)O)CC(=O)O)CC(=O)O` [EDTA, reference compound], in assay [1] (1 h, read-out: inhibition of transcription), the inhibition at 10 µM was not below 90%. In turn, `Oc1ccc(N=Nc2ccc(F)c(C(F)(F)F)c2)cc1` [Compound 14] had an inhibition at 20 µM in assay [1] of 42%. On the same count and under the same terms, the figure for `Oc1ccc(N=Nc2cc(C(F)(F)F)cc(C(F)(F)F)c2)cc1` [Compound 16, 4-[-2-[3,5-(di-trifluoromethyl)phenyl]diazenyl]phenol] is 28%. `O=C(Nc1ccc(O)cc1)c1cccc(C(F)(F)F)c1` [CONH]: the concentration for half-maximal inhibition (IC50) amounted to 500 µM on human Pol II (Table 1) and 51 µM in assay [1] (Table 1). In the case of `O=[N+]([O-])c1cc(O)ccc1N=Nc1cccc(C(F)(F)F)c1` [Compound 23, 4-[-2-[3-(trifluoromethyl]phenyl)diazenyl]-3-nitro-phenol], the inhibition at 20 µM in assay [1] was found to be 37%. Turning to `OC(Cn1cncn1)(Cn1cncn1)c1ccc(F)cc1F` [fluconazole, reference compound], the “recoverable colonies from the kidneys of treated animals” value in assay [2] is on record as “reduced”. Consider `Oc1ccc(N=Nc2cccc(C(F)(F)F)c2F)cc1` [Compound 13, 4-[-2-[2-fluoro-3-(trifluoromethyl)phenyl]diazenyl]phenol], for which testing at 20 µM in assay [1] gave an inhibition of 38%.

For `Oc1ccc(CCc2cccc(C(F)(F)F)c2)cc1` [CH2 CH2], the IC50 at human Pol II (Table 1) was more than 2000 µM; in assay [1] (Table 1), 230 µM. In the case of `O=Cc1cc(/N=N/c2cccc(C(F)(F)F)c2)ccc1O` [Compound 10, 5-[(E)-2-[3-(trifluoromethyl)phenyl]diazenyl]-2-hydroxy-benzaldehyde], the IC50 on human Pol II (Table 2) worked out at 82 µM; in assay [1] (Table 2), 34 µM.

`Oc1ccc(C=Cc2cccc(C(F)(F)F)c2)cc1Br` [Compound 26, 4-[-2-[3-(trifluoromethyl)phenyl]ethenyl]-2-bromo-phenol]: the results for the 50% inhibitory concentration (IC50) (at human Pol II (Table 2); in assay [1] (Table 2)) were 84 µM and 42 µM, respectively. Turning to `C[C@@H]1[C@H](O)[C@@H](C)/C=C/C=C/C=C/C=C/C=C/C=C/C=C/[C@H](O[C@@H]2O[C@H](C)[C@@H](O)[C@H](N)[C@@H]2O)C[C@@H]2O[C@](O)(C[C@@H](O)C[C@@H](O)[C@H](O)CC[C@@H](O)C[C@@H](O)CC(=O)O[C@H]1C)C[C@H](O)[C@H]2C(=O)O` [amphotericin B, reference compound], the “exposure time after which no CFUs are recoverable” value in the assay with S. cerevisiae and with C. albicans was approximately 30 min in each case. The “colony forming units after exposure” value in the assay on S. cerevisiae (setting [3]) and in the assay with C. albicans (setting [3]) was “no colony forming units are detected” in each case. Turning to `OCc1cc(O)ccc1N=Nc1cccc(C(F)(F)F)c1` [Compound 21, 4-[-2-[3-(trifluoromethyl)phenyl]diazenyl]-3-(hydroxymethyl)-phenol], in assay [1], the inhibition at 20 µM is 39%.

`COc1cc(N=Nc2ccc(O)cc2)cc(C(F)(F)F)c1` [Compound 17] gave an inhibition at 20 µM in assay [1] of 53%. On the same count and under the same terms, the figure for `N#Cc1cc(O)ccc1N=Nc1cccc(C(F)(F)F)c1` [Compound 20, 4-[-2-[3-(trifluoromethyl)phenyl]diazenyl]-3-cyano-phenol] is 28%; for `N#Cc1cc(N=Nc2cccc(C(F)(F)F)c2)ccc1O` [Compound 18, 4-[-2-[3-(trifluoromethyl)phenyl]diazenyl]-2-cyano-phenol] it is 37%. With `COc1ccc(C=Cc2cccc(C(F)(F)F)c2)cc1` [Compound 24, 4-[-2-[3-(trifluoromethyl)-phenyl]ethenyl]-anisole], the half-maximal inhibitory concentration (IC50) (at human Pol II (Table 2); in assay [1] (Table 2)) was more than 2000 µM in each case.

Regarding `Oc1ccc(N=Nc2cc(C(F)(F)F)ccc2F)cc1` [Compound 15, 4-[-2-[6-fluoro-3-(trifluoromethyl)phenyl]diazenyl]phenol], the inhibition at 20 µM in assay [1] came to 39%. In assay [1], `O=[N+]([O-])c1cccc(N=Nc2ccc(O)cc2)c1` [Compound 12, 4-[-2-[3-(nitro)phenyl]diazenyl]phenol] had an inhibition at 20 µM of 45%. Take `O=C(O)c1cc(N=Nc2cccc(C(F)(F)F)c2)ccc1O` [Compound 9, 5-[-2-[3-(trifluoromethyl)phenyl]diazenyl]-2-hydroxy-benzoic acid]: the figures for the half-maximal inhibitory concentration (IC50) (on human Pol II (Table 2); in assay [1] (Table 2)) were 148 µM and 193 µM, respectively. The corresponding values for `Cc1cccc(N=Nc2ccc(O)cc2)c1` [Compound 5, 4-[-2-[3-(methyl)phenyl]diazenyl]-phenol] are 340 µM and 90 µM. Take `COc1ccc(N=Nc2cccc(C(F)(F)F)c2)cc1` [Compound 3, 4-[-2-[3-(trifluoromethyl)phenyl]diazenyl]-anisole]: the IC50 (at human Pol II (Table 2); in assay [1] (Table 2)) was more than 2000 µM each time. Turning to `OB(O)c1cc(C=Cc2cccc(C(F)(F)F)c2)ccc1O` [Compound 27], the IC50 came out at 136 µM at human Pol II (Table 2) and 58 µM in assay [1] (Table 2).
